Measurements as given in patent US11576944B2, “Grape extracts and methods relating thereto” (priority 2016, dated 2023).
Entries after “also recorded” stand apart in the source; their conditions may differ.

Tests used:
[1] = test system: ZR-75-1 human ER+ breast tumors; test: ZR-75-1 ER+ breast tumors in athymic mice, with tamoxifen; type: in vivo, mouse; details: 7 weeks
Description: The mammary fat pads of athymic mice were injected with ZR-75-1 ER+ cells (1×10^6 cells), and tumor growth was measured every third day using a caliper.
Sections were incubated with an antibody to Ki67, a marker of proliferation.
The 4th inguinal mammary pads of athymic mice (female, 15-20 g, 5-6 weeks of age) were injected with 1×10^6 actively growing ZR-75-1 or MCF7 human ER+ breast cancer cells. […] Tumor size was measured twice a week in conscious animals, using a caliper, and tumor volume was calculated using the formula for a semi-ellipsoid (4/3πr^3)/2)]. […] After 7 weeks of treatment for the mice containing ZR-75-1 human ER+ breast tumors or 5 weeks of treatment for the mice containing MCF7 ER+ breast tumors, the mice were sacrificed and the tumors were removed and weighed.

[2] = test system: MCF7 human ER+ breast tumors; test: MCF7 ER+ breast tumors in athymic mice, with tamoxifen; type: in vivo, mouse; details: 5 weeks
Description: The mammary fat pads of athymic mice were injected with MCF7 human ER+ cells (1×10^6 cells) and tumor growth was measured every third day using a caliper.
The 4th inguinal mammary pads of athymic mice (female, 15-20 g, 5-6 weeks of age) were injected with 1×10^6 actively growing ZR-75-1 or MCF7 human ER+ breast cancer cells. The mice were group housed in cages with HEPA-filtered air on 12-h light/dark cycles and were fed regular rat chow ad libitum. Tumor size was measured twice a week in conscious animals, using a caliper, and tumor volume was calculated using the formula for a semi-ellipsoid (4/3πr^3)/2)]. […] After 7 weeks of treatment for the mice containing ZR-75-1 human ER+ breast tumors or 5 weeks of treatment for the mice containing MCF7 ER+ breast tumors, the mice were sacrificed and the tumors were removed and weighed.

[3] = test system: angiotensin II (Ang II)-induced hypertension; test: Ang II-induced hypertension and cardiac damage in rats; type: in vivo, rat; details: Ang II alone 24 μg/kg/h via osmotic mini-pump, at 4 weeks (from 120.4±2.4)
Description: The effect of p-MGE on hypertension and hypertension-induced cardiac damage was measured in rats with angiotensin II (Ang II)-induced hypertension. Sprague-Dawley rats (male, 8-12 weeks of age) were treated for 4 weeks with regular drinking water (Control), p-MGE alone (0.2 mg/mL of total phenolics in their drinking water), Ang II alone (24 μg/kg/h via implanted osmotic mini-pump) or p-MGE and Ang II. For a 250 g rat, this amount of p-MGE corresponds to approximately 20 mg phenolics/kg/day. Administration of p-MGE was initiated 1 week prior to treatment with Ang II. Blood pressure was recorded weekly by tail-cuff plethysmography, at the same time of day by the same individual. […] Scans to quantify cardiac parameters were taken in M mode parasternal short axis view at mid-papillary level, Tissue Doppler in 4 chamber view at the mitral annulus, and pulse wave Doppler in 4 chamber view to measure transmitral inflow. The ejection fraction of the heart and fractional shortening were measured in M mode parasternal short axis view at the mid-papillary level, using the VisualSonics Vevo 2100 High-Resolution Imaging System, as a measure of systolic function. […] Diastolic function was measured as e′, to assess the relaxation of the left ventricle, and E/e′, to assess the filling pressure of the left ventricle. […]

[4] = p-MGE 0.1 mg phenolics/mL drinking water, tamoxifen ~32 mg/kg/d in chow, or both
[5] = p-MGE 0.1 mg phenolics/mL, tamoxifen ~32 mg/kg/d, or both

Compound | tumor volume / growth [1, 4] | Ki67 positive cells in tumor sections [1, 5] | tumor weight [1, 5] | tumor volume / growth [2, 4] | tumor weight [2, 5] | systolic blood pressure (tail cuff) [3] [mm Hg]
CC/C(=C(\c1ccccc1)c1ccc(OCCN(C)C)cc1)c1ccccc1 [tamoxifen] | reduced the growth of both ER+ tumors; also recorded: also reduced tumor size | associated with a reduction in the number of cells which were positive for the proliferation marker Ki67; also recorded: also significantly reduced proliferation | also reduced tumor weight | reduced the growth of both ER+ tumors; also recorded: also reduced tumor size | also reduced tumor weight | 
angiotensin II (DRVYIHPF; Angiotensin-2; UniProt P01015 25-32, looked up) [Ang II, used to induce hypertension in rats] |  |  |  |  |  | 213.1±6.8
